According to US4127687A, “Prevention of fouling of marine structures such as boat hulls” (Rohm and Haas Company, priority 1976, dated 1978):
Values after ≈ are worked out from the molar mass of the structure shown. Where two headings read alike, the source gives them in different places.

Assays:
[1] = test system: sea water marine organisms; test: Effectiveness as sea water marine anti-foulant; format: in vivo; details: result in words
From the text: The results in anti-fouling paints when utilizing the 3-isothiazolones of the patents noted above, are not predictable from their effectiveness as general biocides, whether against fresh water algae, bacteria, fungi, insects, etc.
Of the compounds appearing hereinafter in the examples, a number are common to Table 1 appearing in columns 9-12 of the U.S. Pat. No. 3,573,488 patent. Among the compounds common to the latter patent and the present specification are the compounds identified in the patent as example numbers 3, 5-8, 13, 23, 24, 33, 36, 37, the n-octyl isomer of examples 38, 40, 75, 76, 79, 84, and 93-96.
In example B of the U.S. Pat. No. 3,573,448 patent (appearing in columns 22-24) involving the control of algae, bacteria, fungi, and slime in fresh water cooling towers, not one of the compounds, or in some cases its homologue or analog, was effective as a salt water marine anti-foulant. […]
In the following examples, two systems of testing the compounds and evaluating the same are utilized. One involves the utilization of a confined amount of the materials to be evaluated in a cylindrical container having an open end covered by a membrane permeable to a limited extent by the sea water and by the compound in the container. The other method involves making up an anti-fouling paint and testing the same. In a four month period, meaningful results are obtained, and for a full scale test, a six month period, bracketing the summer months, is preferred. The evaluations involving (1) field tests, (2) laboratory tests, and (3) paint panel tests, are as follows: […]

[2] = test system: weed; test: Membrane Diffusion Raft Trials, weed control; format: in vivo, grass-like algal growth common in sea water; parameters: key: 0 = none, + = some, ++ = effective; details: membrane test, average 15 to 16 weeks of immersion
Procedure, shortened: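 Field raft test in sea water: known quantity of compound in container sealed with membrane of known porosity, diffusing into surrounding water; panels at waterline (illuminated, aerated) and flats (poorly lit, deeper). Fouling settlement inspected over about 15-16 weeks average immersion; scored 0 none, + some, ++ effective.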

[3] = test system: barnacle; test: Membrane Diffusion Raft Trials, barnacle control; format: in vivo, barnacles; parameters: key: 0 = none, + = some, ++ = effective barnacle control; details: membrane test, average 15 to 16 weeks of immersion
Procedure, shortened: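 Test compound held in a plastic container sealed by a porous membrane, diffusing into surrounding seawater on raft panels alongside standard poisons and a non-toxic control membrane. Settlement timed and quantified by regular inspection; scored 0 (none), + (some) or ++ (effective), averaging 15 to 16 weeks' immersion.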

[4] = Amount of toxicant remaining in the test container after membrane diffusion raft tests; format: physicochemical; parameters: key: 0: empty or trace; +: some; + +: ample; details: after completion of membrane diffusion raft tests
Procedure, shortened: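 Known amount of compound held in a cylindrical container sealed with a membrane of known porosity, fixed to a raft panel so toxicant diffuses into the surrounding water. Each panel carries 35 test compounds, 4 standard poisons and 1 non-toxic membrane control. After the trial, container contents inspected visually for remaining toxicant (0 = empty or trace).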

[5] = Water solubility by UV spectrophotometric method; format: physicochemical; details: water
Procedure, shortened: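 Molar absorptivity determined from UV absorbance of a known-concentration aqueous solution at λmax (10 cm cell). Saturated solution prepared by stirring excess compound in deionized water ~72 hrs, filtered, diluted to mid-scale absorbance; solubility calculated from absorbance using that absorptivity.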

[6] = test system: Enteromorpha spores; test: Laboratory toxicity test (Lab Bioassay) with Enteromorpha spores; format: in vivo; details: using Enteromorpha spores
From the text: Standard laboratory toxicity tests use Enteromorpha spores (zoospores or gametes) but Ectocarpus spores and barnacle nauplii may also be used. During the spore tests additional information on the control of bacterial and diatom slimes becomes available since these organisms are unavoidably introduced with the spore inoculum.
More detailed laboratory toxicity tests on promising compounds determine LD50 values as percentage saturated solution.
^c Using Enteromorpha spores.

[7] = test system: weed; test: Paint panel / plaque tests against weed (Table 2); format: in vivo, grass-like algal growth common in sea water; parameters: key: high performance; medium performance; low performance; poor or unacceptable performance; details: April to November, 1975
From the text: (3) PAINT FORMULATION AND TEST PANEL OR PLAQUE TESTS
In order to evaluate the compound under practical conditions, weighed quantities of promising compounds are ground in standard volumes of a selected range of paint media and brushed out on plaques for marine immersion.
The anti-fouling paint formulations used is exemplified by the following: […]
The most preferred specific compounds were utilized in paints including vinyl chloride-vinyl acetate copolymers, chlorinated rubber, acrylic emulsions, and conventional paints with or without rosin to contain 20% by weight of biocide in the wet film and in some cases (Example 144 and Example 145) with concentrations of 5, 10, and 15% based on the wet film. Each of the compounds is also described in the membrane tests noted above. The paints were applied at normal thicknesses to plaques or panels of 10 centimeters by 10 centimeters which were immersed in various positions as described for the raft noted above. The compounds and results, as against weed, in the season April to November, 1975, are as follows: […]

[8] = saturated solution, Table 1, read-out: Solubility by UV method

Compound | effectiveness as anti-foulant in sea water marine environments [1] | Weed Control [2] | Barnacle Control [3] | Contents at the end of test (amount of toxicants remaining in the test container) [4] | solubility [5, 8] [µg/mL] | Lab Bioassay LD50 [6] | other results
O=c1ccsn1Cc1ccccc1 [2-benzyl-3-isothiazolone, reference compound] | not active for controlling sea water marine organisms |  |  |  |  |  | effectiveness as anti-foulant in sea water marine environments ([1]; listed as benzyl analogue of 2-n-butyl-3-isothiazolone): ineffective as anti-foulants
CCCCCCCCCCn1sccc1=O [2-n-decyl-3-isothiazolone, reference compound] | ineffective as anti-foulants |  |  |  |  |  | 
Cn1scc(Cl)c1=O [4-chloro-2-methyl-3-isothiazolone, reference compound] | not active for controlling sea water marine organisms |  |  |  |  |  | 
O=c1cc(Cl)sn1Cc1ccccc1 [5-chloro-2-benzyl-3-isothiazolone] | effective in both environments |  |  |  |  |  | 
Cn1sc(Cl)cc1=O [5-chloro-2-methyl-3-isothiazolone, reference compound] | ineffective as anti-foulants |  |  |  |  |  | 
CCCCn1sccc1=O [Example 1, 2-n-butyl-3-isothiazolone] | ineffective as anti-foulants | 0 | 0 | 0 |  |  | 
CCCCCCn1sccc1=O [Example 2, 2-n-hexyl-3-isothiazolone] | not active for controlling sea water marine organisms | 0 | 0 | 0 | 5100 (≈ 27500 µM) |  | effectiveness as anti-foulant in sea water marine environments ([1]; listed as hexyl homologue of 2-n-butyl-3-isothiazolone): ineffective as anti-foulants
CCCCCCCCn1sccc1=O [Example 3, 2-n-octyl-3-isothiazolone] | not active for controlling sea water marine organisms | 0 | 0 | 0 |  |  | solubility [5]: 481 µg/mL (≈ 2250 µM); effectiveness as anti-foulant in sea water marine environments ([1]; listed as octyl homologue of 2-n-butyl-3-isothiazolone): ineffective as anti-foulants; effectiveness as anti-foulant in sea water marine environments ([1]; listed as octyl homologue of 2-n-decyl-3-isothiazolone): not active for controlling sea water marine organisms
CC(C)(C)CC(C)(C)n1sccc1=O [Example 4, 2-t-octyl-3-isothiazolone] | not active for controlling sea water marine organisms | 0 | 0 | 0 | 410 (≈ 1920 µM) |  | 
CCCCCCCCCCCCn1sccc1=O [Example 5] | not active for controlling sea water marine organisms | 0 | 0 | + |  |  | 
CCCCCCCCn1scc(Cl)c1=O [Example 43] |  | + + | 0 | + | 60 (≈ 242 µM) | 0.0003 percentage saturated solution | Effectiveness in paint V (polyvinyl chloride-acetate) [7]: h; Effectiveness in paint V/R (vinyl/rosin) [7]: h
CCCCn1sc(Cl)c(Cl)c1=O [Example 55] | control or inhibit the growth of one or more sea water marine organisms | + + | + | + | 1000 (≈ 4420 µM) |  | 
CCCCCCn1sc(Cl)c(Cl)c1=O [Example 56] | control or inhibit the growth of one or more sea water marine organisms | + + | + + | 0 | 115 (≈ 452 µM) |  | 
CCCCCCCCCCn1sc(Cl)c(Cl)c1=O [Example 63] |  | + + | 0 | + + | 1.4 (≈ 4.51 µM) | 0.03 percentage saturated solution | Effectiveness in paint CONV (conventional anti-fouling formulation) [7]: l; Effectiveness in paint CR (chlorinated rubber) [7]: p; Effectiveness in paint CR/R (chlorinated rubber/rosin) [7]: p; Effectiveness in paint EM (acrylic emulsion) [7]: m; Effectiveness in paint V (polyvinyl chloride-acetate) [7]: m; Effectiveness in paint V/R (vinyl/rosin) [7]: m
COc1c(Cl)cccc1-n1sc(Cl)c(Cl)c1=O [Example 79] |  | + + | + | + + |  | 0.065 percentage saturated solution | Solubility by UV method: rapidly decomposes (remark) ([5]; Table 1 solubility column): rapidly decomposes
O=c1c(Br)c(Cl)sn1Cc1ccc(Cl)cc1 [Example 91] |  | + + | 0 | + | 3.3 (≈ 9.73 µM) | 0.02 percentage saturated solution | 
O=c1c(Br)c(Cl)sn1-c1ccc(Cl)cc1 [Example 93] |  | + + | + + | + + | 1.72 (≈ 5.29 µM) | 0.012 percentage saturated solution | 
O=c1c(Br)c(Br)sn1C1CCCCC1 [Example 98] |  | + + | 0 | + | 6.4 (≈ 18.8 µM) | 0.02 percentage saturated solution | 
O=c1c(Br)c(Br)sn1Cc1ccc(Cl)cc1 [Example 99] |  | + + | + | + + | 1.7 (≈ 4.43 µM) | 0.01 percentage saturated solution | 
Cc1c(Cl)sn(CCc2ccccc2)c1=O [Example 108] |  | 0 | + + | + | 155 (≈ 611 µM) | > 1 percentage saturated solution | 
Cc1c(Cl)sn(-c2cccc(Cl)c2)c1=O [Example 113] |  | + + | + | + + | 13 (≈ 50 µM) | 0.013 percentage saturated solution | 
Cc1c(Cl)sn(-c2ccc(Cl)cc2)c1=O [Example 114] |  | + + | + + | + + | 14 (≈ 53.8 µM) | 0.008 percentage saturated solution | 
O=c1c(Cl)c(Cl)sn1-c1ccc(Cl)cc1 [Example 145, 4,5-dichloro-2(4'-chlorophenyl)-3-isothiazolone] | effective in anti-fouling environments |  |  |  |  |  | Effectiveness in paint CONV (conventional anti-fouling formulation) [7]: h; Effectiveness in paint CR (chlorinated rubber) [7]: h; Effectiveness in paint EM (acrylic emulsion) [7]: h; Effectiveness in paint V (polyvinyl chloride-acetate) [7]: h; Effectiveness in paint V/R (vinyl/rosin) [7]: h
